Assay results reported in paper PMC6199744, “Development of Chemical Proteomics for the Folateome and Analysis of the Kinetoplastid Folateome” (ACS Infectious Diseases, 2018).
Read-outs that look alike come from different tables or passages of the source.

Experiments:
Type in all cases: binding
[1] = molecular target: T1, HeLa cell extract proteins (Homo sapiens, UniProt Q13085)
T1 construct: endogenous in cells; host or cells: HeLa cell extract

[2] = molecular target: T2, HeLa cell extract proteins (Homo sapiens, UniProt P40227)
T2 construct: endogenous in cells; host or cells: HeLa cell extract

[3] = molecular target: T3, HeLa cell extract proteins (Homo sapiens, UniProt P00966)
T3 construct: endogenous in cells; host or cells: HeLa cell extract
T3 sequence (P00966 1-412): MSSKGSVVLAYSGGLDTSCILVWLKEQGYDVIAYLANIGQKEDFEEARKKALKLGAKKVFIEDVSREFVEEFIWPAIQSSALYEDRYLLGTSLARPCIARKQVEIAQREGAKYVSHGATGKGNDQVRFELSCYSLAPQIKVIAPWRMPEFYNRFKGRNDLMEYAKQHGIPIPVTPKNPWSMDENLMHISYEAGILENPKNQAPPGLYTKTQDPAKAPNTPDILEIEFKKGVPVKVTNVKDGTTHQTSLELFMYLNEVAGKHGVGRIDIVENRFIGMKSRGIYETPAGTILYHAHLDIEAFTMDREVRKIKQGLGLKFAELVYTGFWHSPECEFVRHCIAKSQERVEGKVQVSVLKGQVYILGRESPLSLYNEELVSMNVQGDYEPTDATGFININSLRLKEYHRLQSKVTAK

[4] = molecular target: T4, HeLa cell extract proteins (Homo sapiens, UniProt Q9UL46)
T4 construct: endogenous in cells; host or cells: HeLa cell extract

[5] = molecular target: T5, HeLa cell extract proteins (Homo sapiens, UniProt P08559)
T5 construct: endogenous in cells; host or cells: HeLa cell extract
T5 sequence (P08559 30-390): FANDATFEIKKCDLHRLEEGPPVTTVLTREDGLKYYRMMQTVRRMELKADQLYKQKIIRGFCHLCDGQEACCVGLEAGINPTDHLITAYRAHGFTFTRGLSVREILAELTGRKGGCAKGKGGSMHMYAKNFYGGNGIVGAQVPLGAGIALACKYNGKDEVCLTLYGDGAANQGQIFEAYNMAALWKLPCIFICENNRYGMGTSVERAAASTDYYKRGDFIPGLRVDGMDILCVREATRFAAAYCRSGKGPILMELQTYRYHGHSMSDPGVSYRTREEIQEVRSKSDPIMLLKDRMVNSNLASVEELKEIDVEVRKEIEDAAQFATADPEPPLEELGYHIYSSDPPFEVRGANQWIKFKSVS

[6] = molecular target: T6, HeLa cell extract proteins (Homo sapiens, UniProt Q6JQN1)
T6 construct: endogenous in cells; host or cells: HeLa cell extract
T6 sequence (Q6JQN1 1-1059): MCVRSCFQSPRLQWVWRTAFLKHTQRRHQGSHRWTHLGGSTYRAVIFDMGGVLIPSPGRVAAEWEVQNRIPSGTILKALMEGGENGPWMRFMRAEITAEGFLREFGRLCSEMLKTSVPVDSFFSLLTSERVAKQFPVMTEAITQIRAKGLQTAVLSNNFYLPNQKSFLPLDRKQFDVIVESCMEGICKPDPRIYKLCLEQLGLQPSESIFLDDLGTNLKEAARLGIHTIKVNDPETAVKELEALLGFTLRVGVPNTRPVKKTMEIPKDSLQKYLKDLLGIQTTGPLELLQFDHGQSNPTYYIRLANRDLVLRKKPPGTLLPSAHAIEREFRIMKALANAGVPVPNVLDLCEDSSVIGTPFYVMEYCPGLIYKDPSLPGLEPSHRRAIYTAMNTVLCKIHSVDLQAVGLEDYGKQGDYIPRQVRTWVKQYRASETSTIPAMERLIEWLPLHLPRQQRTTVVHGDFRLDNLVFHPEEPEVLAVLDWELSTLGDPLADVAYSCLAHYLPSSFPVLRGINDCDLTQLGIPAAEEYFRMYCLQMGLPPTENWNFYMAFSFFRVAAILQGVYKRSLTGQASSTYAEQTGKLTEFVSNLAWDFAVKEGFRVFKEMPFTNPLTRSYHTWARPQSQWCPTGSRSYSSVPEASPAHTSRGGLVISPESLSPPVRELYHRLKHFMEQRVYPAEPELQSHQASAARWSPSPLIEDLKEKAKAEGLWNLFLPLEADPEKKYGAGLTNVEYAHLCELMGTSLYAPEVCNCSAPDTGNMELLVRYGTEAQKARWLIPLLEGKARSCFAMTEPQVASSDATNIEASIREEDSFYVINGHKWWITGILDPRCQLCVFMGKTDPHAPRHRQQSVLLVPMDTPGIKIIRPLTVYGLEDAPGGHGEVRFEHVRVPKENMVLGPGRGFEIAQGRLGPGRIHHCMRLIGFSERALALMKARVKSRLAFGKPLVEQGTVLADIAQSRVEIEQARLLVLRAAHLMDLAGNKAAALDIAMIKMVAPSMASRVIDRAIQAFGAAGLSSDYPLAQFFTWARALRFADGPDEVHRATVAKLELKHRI

[7] = molecular target: T7, HeLa cell extract proteins (Homo sapiens, UniProt P27708)
T7 construct: endogenous in cells; host or cells: HeLa cell extract

[8] = molecular target: T8, HeLa cell extract proteins (Homo sapiens, UniProt O00148)
T8 construct: endogenous in cells; host or cells: HeLa cell extract

[9] = molecular target: T9, HeLa cell extract proteins (Homo sapiens, UniProt P14618)
T9 construct: endogenous in cells; host or cells: HeLa cell extract

[10] = molecular target: T10, HeLa cell extract proteins (Homo sapiens, UniProt Q15907)
T10 construct: endogenous in cells; host or cells: HeLa cell extract
T10 sequence (Q15907 1-218): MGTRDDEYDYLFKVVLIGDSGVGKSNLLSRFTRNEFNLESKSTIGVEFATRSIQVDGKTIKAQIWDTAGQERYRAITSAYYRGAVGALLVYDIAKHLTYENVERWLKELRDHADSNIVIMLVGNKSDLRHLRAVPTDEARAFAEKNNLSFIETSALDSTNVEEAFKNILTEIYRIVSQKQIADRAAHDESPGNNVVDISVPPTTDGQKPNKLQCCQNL

[11] = HeLa, protein ASS1 (ARGININOSUCCINATE SYNTHASE.)
[12] = HeLa, protein DDX39 (CDNA FLJ55484, HIGHLY SIMILAR TO ATP-DEPENDENT RNA HELICASE DDX39.)
[13] = HeLa, protein PKM2 (CDNA FLJ56065, HIGHLY SIMILAR TO PYRUVATE KINASE ISOZYME M1.)

T8 sequence (O00148 whole entry): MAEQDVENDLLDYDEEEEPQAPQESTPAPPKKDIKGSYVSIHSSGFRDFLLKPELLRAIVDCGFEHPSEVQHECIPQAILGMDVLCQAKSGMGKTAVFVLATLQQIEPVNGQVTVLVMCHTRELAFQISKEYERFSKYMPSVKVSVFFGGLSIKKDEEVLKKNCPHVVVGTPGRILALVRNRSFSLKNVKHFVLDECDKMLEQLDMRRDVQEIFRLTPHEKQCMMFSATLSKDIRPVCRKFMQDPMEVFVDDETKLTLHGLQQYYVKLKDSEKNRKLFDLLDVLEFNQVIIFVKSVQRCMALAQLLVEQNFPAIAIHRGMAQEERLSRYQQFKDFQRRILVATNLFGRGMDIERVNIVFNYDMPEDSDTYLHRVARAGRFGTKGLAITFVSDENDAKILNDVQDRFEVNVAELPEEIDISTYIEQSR
T4 sequence (Q9UL46 whole entry): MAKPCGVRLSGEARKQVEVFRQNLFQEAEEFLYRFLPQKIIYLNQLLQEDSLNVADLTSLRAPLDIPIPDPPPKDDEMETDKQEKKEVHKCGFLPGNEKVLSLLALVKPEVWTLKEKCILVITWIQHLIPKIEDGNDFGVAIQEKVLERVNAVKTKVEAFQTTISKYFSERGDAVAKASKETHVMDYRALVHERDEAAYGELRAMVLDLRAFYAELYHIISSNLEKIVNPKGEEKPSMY
T7 sequence (P27708 whole entry): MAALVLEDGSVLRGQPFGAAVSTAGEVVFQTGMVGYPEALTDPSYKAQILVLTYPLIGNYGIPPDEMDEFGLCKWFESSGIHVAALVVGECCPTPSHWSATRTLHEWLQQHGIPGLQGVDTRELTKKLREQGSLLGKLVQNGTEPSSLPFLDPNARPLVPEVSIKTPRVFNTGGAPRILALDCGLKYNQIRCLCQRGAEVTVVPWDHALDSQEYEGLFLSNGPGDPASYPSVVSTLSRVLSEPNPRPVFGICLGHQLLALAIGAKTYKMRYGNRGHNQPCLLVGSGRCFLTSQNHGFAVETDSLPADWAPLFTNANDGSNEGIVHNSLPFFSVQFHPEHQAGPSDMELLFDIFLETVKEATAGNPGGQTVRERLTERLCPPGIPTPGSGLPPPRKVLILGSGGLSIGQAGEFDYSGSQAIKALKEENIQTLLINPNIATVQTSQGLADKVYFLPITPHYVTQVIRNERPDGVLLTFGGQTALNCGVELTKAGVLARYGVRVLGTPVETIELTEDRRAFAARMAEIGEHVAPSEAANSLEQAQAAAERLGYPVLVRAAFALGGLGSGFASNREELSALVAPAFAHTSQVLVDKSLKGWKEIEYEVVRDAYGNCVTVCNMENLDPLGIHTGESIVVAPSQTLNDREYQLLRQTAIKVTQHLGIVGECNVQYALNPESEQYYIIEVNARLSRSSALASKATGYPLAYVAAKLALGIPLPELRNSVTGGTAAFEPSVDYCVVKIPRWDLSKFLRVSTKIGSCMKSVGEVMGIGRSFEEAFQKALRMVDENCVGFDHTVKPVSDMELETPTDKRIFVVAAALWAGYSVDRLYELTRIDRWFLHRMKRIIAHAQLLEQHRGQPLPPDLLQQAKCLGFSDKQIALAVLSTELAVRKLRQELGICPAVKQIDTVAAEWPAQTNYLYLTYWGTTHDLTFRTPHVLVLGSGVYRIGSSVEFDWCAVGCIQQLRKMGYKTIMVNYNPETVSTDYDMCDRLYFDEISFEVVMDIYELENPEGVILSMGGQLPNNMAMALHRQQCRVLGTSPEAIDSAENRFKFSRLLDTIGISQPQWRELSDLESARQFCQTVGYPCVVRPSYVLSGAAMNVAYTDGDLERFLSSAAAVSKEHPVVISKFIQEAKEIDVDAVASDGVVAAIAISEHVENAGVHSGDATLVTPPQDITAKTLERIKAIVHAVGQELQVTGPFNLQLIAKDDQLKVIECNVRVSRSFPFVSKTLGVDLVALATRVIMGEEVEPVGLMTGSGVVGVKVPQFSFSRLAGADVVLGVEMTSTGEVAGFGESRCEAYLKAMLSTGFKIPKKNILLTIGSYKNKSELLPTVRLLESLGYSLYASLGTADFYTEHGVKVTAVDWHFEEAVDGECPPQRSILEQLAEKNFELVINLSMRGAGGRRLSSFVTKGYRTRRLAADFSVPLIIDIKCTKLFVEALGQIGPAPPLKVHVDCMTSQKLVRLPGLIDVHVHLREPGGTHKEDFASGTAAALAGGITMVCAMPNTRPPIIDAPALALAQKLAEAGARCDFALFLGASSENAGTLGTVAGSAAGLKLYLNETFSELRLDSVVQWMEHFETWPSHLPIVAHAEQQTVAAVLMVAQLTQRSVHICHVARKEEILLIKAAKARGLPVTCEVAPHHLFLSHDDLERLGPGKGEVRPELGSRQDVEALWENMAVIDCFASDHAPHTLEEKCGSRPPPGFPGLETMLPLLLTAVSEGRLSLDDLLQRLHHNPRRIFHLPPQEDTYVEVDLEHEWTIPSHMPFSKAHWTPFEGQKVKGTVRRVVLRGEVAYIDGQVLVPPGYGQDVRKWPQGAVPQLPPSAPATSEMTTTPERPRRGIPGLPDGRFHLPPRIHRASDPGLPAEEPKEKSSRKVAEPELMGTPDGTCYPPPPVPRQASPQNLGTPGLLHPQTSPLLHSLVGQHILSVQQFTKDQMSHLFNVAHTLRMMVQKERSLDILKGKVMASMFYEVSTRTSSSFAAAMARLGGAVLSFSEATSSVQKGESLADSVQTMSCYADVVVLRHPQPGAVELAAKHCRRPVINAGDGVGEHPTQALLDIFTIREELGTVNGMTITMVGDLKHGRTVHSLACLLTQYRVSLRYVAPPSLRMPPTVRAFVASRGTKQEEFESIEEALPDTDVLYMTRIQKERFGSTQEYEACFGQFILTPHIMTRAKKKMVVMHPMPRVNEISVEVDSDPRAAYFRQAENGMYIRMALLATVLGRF
T2 sequence (P40227 whole entry): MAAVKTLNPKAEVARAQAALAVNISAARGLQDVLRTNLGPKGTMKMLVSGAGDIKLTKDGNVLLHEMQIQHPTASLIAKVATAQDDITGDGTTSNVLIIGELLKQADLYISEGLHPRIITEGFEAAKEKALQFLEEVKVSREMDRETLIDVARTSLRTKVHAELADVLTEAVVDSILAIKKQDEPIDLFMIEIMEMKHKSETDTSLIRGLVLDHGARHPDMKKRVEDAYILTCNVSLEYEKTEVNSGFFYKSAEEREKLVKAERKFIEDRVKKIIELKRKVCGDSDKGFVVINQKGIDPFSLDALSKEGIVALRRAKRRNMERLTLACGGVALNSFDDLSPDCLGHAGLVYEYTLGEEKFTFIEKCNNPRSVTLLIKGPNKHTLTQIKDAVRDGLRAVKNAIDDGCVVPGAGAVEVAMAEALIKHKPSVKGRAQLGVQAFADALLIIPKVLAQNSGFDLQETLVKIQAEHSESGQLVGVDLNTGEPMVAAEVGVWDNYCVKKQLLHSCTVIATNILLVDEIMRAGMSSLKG
T9 sequence (P14618 whole entry): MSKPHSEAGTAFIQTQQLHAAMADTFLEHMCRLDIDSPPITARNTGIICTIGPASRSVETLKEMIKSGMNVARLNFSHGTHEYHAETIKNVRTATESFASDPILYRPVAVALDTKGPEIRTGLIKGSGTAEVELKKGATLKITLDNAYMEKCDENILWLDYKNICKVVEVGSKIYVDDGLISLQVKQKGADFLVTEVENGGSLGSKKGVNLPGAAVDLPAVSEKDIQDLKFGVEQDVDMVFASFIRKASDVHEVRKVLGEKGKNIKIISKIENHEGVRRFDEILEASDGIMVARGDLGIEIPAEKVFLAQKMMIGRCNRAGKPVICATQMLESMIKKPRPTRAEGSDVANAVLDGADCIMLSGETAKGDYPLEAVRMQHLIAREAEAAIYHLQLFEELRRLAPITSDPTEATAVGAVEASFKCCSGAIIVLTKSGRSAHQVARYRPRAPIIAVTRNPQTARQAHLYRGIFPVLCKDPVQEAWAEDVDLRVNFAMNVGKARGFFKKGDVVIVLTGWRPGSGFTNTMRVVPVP

Structure (SMILES) | fold changes relative to vehicle control ([1]; HeLa, captured protein ACACA) | fold changes relative to vehicle control ([2]; HeLa, protein CCT6A) | fold changes relative to vehicle control ([3]; HeLa, protein ASS1) | fold changes relative to vehicle control ([4]; HeLa, protein PSME2) | fold changes relative to vehicle control ([5]; HeLa, captured protein PDHA1) | fold changes relative to vehicle control ([6]; protein ACAD10, HeLa) | fold changes relative to vehicle control ([7]; protein CAD, HeLa) | fold changes relative to vehicle control ([8]; HeLa, protein DDX39) | fold changes relative to vehicle control ([9]; HeLa, protein PKM2) | fold changes relative to vehicle control ([10]; HeLa, protein RAB11B) | fold changes relative to vehicle control ([1]; protein ACACA, HeLa) | fold changes relative to vehicle control ([2]; protein CCT6A, HeLa) | fold changes relative to vehicle control ([4]; protein PSME2, HeLa) | fold changes relative to vehicle control ([5]; HeLa, protein PDHA1) | fold changes relative to vehicle control ([6]; captured protein ACAD10, HeLa) | fold changes relative to vehicle control ([7]; captured protein CAD, HeLa) | fold changes relative to vehicle control [8, 12] | fold changes relative to vehicle control [9, 13] | fold changes relative to vehicle control ([10]; protein RAB11B, HeLa) | also measured
Nc1nc2c(c(=O)[nH]1)N(C=O)C(CNc1ccc(C(=O)N[C@@H](CCC(=O)O)C(=O)O)cc1)CN2 (stereo partly shown) [LEU, leucovorin] | 1.02 | 1.01 | 1.03 | 0.94 | 1.06 | 0.96 | 1.34 | 1.07 | 1.03 | 0.87 | – | – | – | – | – | – | – | – | – | –
Nc1nc2[nH]cc(CCc3ccc(C(=O)N[C@@H](CCC(=O)O)C(=O)O)cc3)c2c(=O)[nH]1 [PTX, pemetrexed] | – | – | – | – | – | – | – | – | – | – | – | – | – | – | – | – | – | – | – | fold changes relative to vehicle control [1]: 1.05; fold changes relative to vehicle control [2]: 1.11; fold changes relative to vehicle control [3]: 1.23; fold changes relative to vehicle control [4]: 0.9; fold changes relative to vehicle control [5]: 1.04; fold changes relative to vehicle control [6]: 0.71; fold changes relative to vehicle control [7]: 0.52; fold changes relative to vehicle control [8]: 0.99; fold changes relative to vehicle control [9]: 1.09; fold changes relative to vehicle control [10]: 0.94
CCCCCCOc1ccc(Cc2cnc(N)nc2N)cc1 [compound 1] | – | – | – | – | – | – | – | – | – | – | 1.09 | 1.39 | 1.01 | 1.02 | 0.84 | 1.1 | 1.22 fold | 1.45 fold | 1.02 | fold changes relative to vehicle control [3, 11]: 1.53 fold
CCCCCCOc1cccc(Cc2cnc(N)nc2N)c1 [compound 2] | – | – | – | – | – | – | – | – | – | – | 1.06 | 2.04 | 1.38 | 0.4 | 0.84 | 1.01 | 2.4 fold | 2.57 fold | 1.44 | fold changes relative to vehicle control [3, 11]: 2.2 fold
Nc1nc2cccc(-c3ccccc3)c2n1Cc1ccc(Cl)c(Cl)c1 [compound 3] | – | – | – | – | – | – | – | – | – | – | 1.04 | 1.04 | 0.93 | 1.07 | 0.94 | 1.14 | 0.86 fold | 0.99 fold | 0.97 | fold changes relative to vehicle control ([3]; HeLa, protein ASS1 (ARGININ[…].)): 0.97 fold
NCCOCCOCC(=O)Nc1nc2ncc(CNc3ccc(C(=O)NC(CCC(=O)O)C(=O)O)cc3)nc2c(=O)[nH]1 (stereo not shown) [compound 6] | 1.12 | 1.19 | 1.43 | 0.95 | 1 | 0.76 | 1.18 | 1.17 | 1.29 | 1.14 | – | – | – | – | – | – | – | – | – | –
NCCCNc1ccc(C(=O)NC(CCC(=O)O)C(=O)O)cc1 (stereo not shown) [compound 7] | 1.17 | 1.31 | 1.01 | 0.89 | 0.99 | 0.95 | 1.3 | 0.88 | 0.94 | 0.84 | – | – | – | – | – | – | – | – | – | –
